Experiment [1] relates to C. elegans strain AM141 (Q40::YFP aggregates). Description: Q40::YFP aggregate foci in C. elegans strain AM141 (Huntington-like polyglutamine aggregation model). Type of experiment: in vivo. The note with it: for reduction of aggregate count (aggregate foci): strain AM141, Q40::YFP in muscle, FIG. 3. The source says:
C. elegans (AM141) adults were imaged at 7 days of adult age and quantified for intensity (FIG. 2A) and number (FIG. 2B) of Q40::YFP aggregates after 0, 1, 3, or 6 d of exposure to 50-nM PNR-5-02. Treated worms differ from untreated worms (“Days Tx”=0) by 2-tailed t test: *P<0.01; **P<1E-4.
FIG. 3 depicts a graph showing reduction of protein aggregation in a C. elegans model of Huntington's disease or other neurodegenerative diseases featuring aggregates that contain polyglutamine tracts. Strain AM141, which expresses Q40::YFP in muscle, undergoes age-progressive accumulation of aggregate foci. PNR-5-02 analogues confer at least 30% reduction in formation of aggregate foci (****=P<0.00005 and *=P<0.01). PNR-5-18, PNR-4-44, PNR-5-58, and PNR-4-76 reduced aggregate count by ˜20%. PNR-5-02, PNR-4-87, PNR-5-56, and PNR-5-57 reduced aggregates ≥30%.
(§1) Several panels of drugs were tested for their ability to protect against formation of protein aggregates in the following model systems: (i) a cell-culture model of Alzheimer-like protein aggregation (SH-SY5Y-APPSw, a human neuroblastoma cell line expressing the Swedish mutation of Amyloid Precursor Protein (APP), and thus predisposed to form β-amyloid aggregates; (ii) C. elegans strain CL4176, a model of Alzheimer-like amyloidopathy that can be induced to express human Aβ1-42 in muscle, and declines sharply in motility 24-42 hours after induction unless protected by effective drugs; (iii) C. elegans strain CL2355, a model of Alzheimer-like amyloidopathy that expresses human Aβ1-42 in all neurons after upshift induction (as in ii, above), and consequently loses its normal chemotactic responses; (iv) C. elegans strain NL5901, a model of Parkinson's disease that expresses α-synuclein::GFP in neurons, forming fluorescent aggregates with age; aggregates are scored by number and intensity of GFP foci, or scored for neuron loss with age by dye-filling; and (v) C. elegans strain AM141, a model of Huntington-like polyglutamine aggregation, which expresses Q40::YFP (a 40-glutamine tract fused in-frame to yellow fluorescent protein) in muscle cells and accumulates aggregates during aging.

Experiment [2] relates to SH-SY5Y-APPSw cells. As to the kind of experiment: Thioflavin-T amyloid staining in SH-SY5Y-APPSw neuroblastoma cells. Type of experiment: cell-based, human. The note with it: for reduction of Thioflavin-fluorescence intensity: 48 hours drug treatment, amyloid fluorescence per nucleus, P<0.0001. As to the method:
FIG. 7 depicts a graph showing PNR-5-02 analogues reduce amyloid accumulation in human neuroblastoma cells overexpressing amyloid precursor protein (APPSw). SH-SY5Y-APPSw, human neuroblastoma cells overexpressing a mutant amyloid precursor protein (APPsw) associated with familial AD. Elevated APPSw leads to substantial formation of amyloid plaque, visualized by fluorescence microscopy after Thioflavin-T staining on day 3 of culture.
as §1
Human neuroblastoma cells (SH-SY5Y-APPsw), express the Swedish mutant of Amyloid Precursor Protein (APPsw) and therefore are predisposed to form amyloid aggregate. […] Amyloid fluorescence is then divided by the number of nuclei, to obtain relative amyloid content per cell.

The test system of experiment [3] is C. elegans strain CL4176. As to the kind of experiment: C. elegans strain CL4176 amyloidopathy model (human Aβ1-42 in muscle, motility). The class given is in vivo. The note with it: CL4176, decline in motility 24-42 hours after induction. As to the method:
as §1

Experiment [4] relates to C. elegans. Description: C. elegans life span. The class given is in vivo. As to the method: FIG. 8 depicts a graph showing that PNR-5-02 increase C. elegans life span. The effect of PNR-5-02 on C. elegans life span, at different concentrations both mean and maximum life span of the nematode life span is extended by 15%.
Synchronized eggs (expected to hatch at approximately the same time) were placed on 60-mm nutrient-agar plates to which either vehicle (0.013% DMSO, v/v) for controls or PNR-5-02 (10 μM in 0.013% DMSO) was added. Worms were transferred to fresh plates daily for 7 days, and on alternate days thereafter, scoring worms as alive if they moved spontaneously or in response to gentle prodding. Worms lost for reasons other than natural death were censored (removed from mortality calculations) from that date. PNR-5-02 extended the nematode life span by 15% (FIG. 8).

The test system of experiment [5] is BRI-Aβ42 mice. Description: Sarcosyl-insoluble protein aggregates in cerebral cortex of BRI-Aβ42 mice. The class given is in vivo. As for the experimental part: Total protein and sarcosyl-insoluble protein aggregates were prepared from cerebral cortex of […] mice, treated as in FIG. 4. Aliquots were separated on SDS-acrylamide gels and stained with Sypro Ruby (Molecular Probes). Gel lanes were scanned, and for each aggregate-protein lane the integral of intensity was normalized to the integral for total protein. *P<0.03 by 1-tailed heteroscedastic t test.
Total protein and total sarcosyl-insoluble aggregates were isolated from cerebral cortex of BRI-Aβ42 mice, sacrificed after 10 daily IP injections with PNR-5-02 (as above) or vehicle. Protein aliquots were suspended in Laemmli buffer and resolved by SDS-acrylamide gel electrophoresis, and quantitated by protein-specific fluorescent staining. Results, presented in FIG. 5 as the percent of aggregate protein after normalization to total protein from the same sample, indicate an 18% reduction in aggregates for PNR-5-02-treated mice. Larger aggregates (at the top of each gel lane) were reduced >40%.

Experiment [6] has as its system C. elegans strain NL5901. Description: C. elegans strain NL5901 Parkinson's disease model (α-synuclein::GFP aggregates). The class given is in vivo. The note with it: NL5901, α-synuclein::GFP foci or neuron loss. As for the experimental part:
as §1

Experiment [7] concerns C. elegans strain CL2355. Description: C. elegans strain CL2355 amyloidopathy model (human Aβ1-42 in all neurons, chemotaxis). The class given is in vivo. To be noted: CL2355, loss of chemotactic responses. As to the method: as §1
Where [8] appears, read: at different concentrations, FIG. 8.
Where [9] appears, read: cerebral cortex, 10 daily IP injections 5.7 μmole/kg.

“Also recorded” adds a separate entry of the source.

The record followed here is patent US12552763B2, “Methods of protecting against neurodegeneration” (BioVentures, LLC, priority 2017, dated 2026).

In the case of `COc1cc(/C(C#N)=C/c2cc3ccccc3[nH]2)cc(OC)c1OC` [PNR-4-44], the “reduction of aggregate count (aggregate foci)” value (“reduction of aggregate count” for short) in experiment [1] is recorded as roughly 20%.
As for `COc1ccc(/C(C#N)=C/c2cc3ccccc3s2)cc1` [PNR-4-76], the “reduction of aggregate count” value in experiment [1] is roughly 20%.
As to `COc1ccc(/C(C#N)=C/c2c[nH]c3ccccc23)cc1OC` [PNR-4-87], in experiment [2], the “reduction of Thioflavin-fluorescence intensity” value stood at 34%.
On to `COc1cc(/C(C#N)=C\c2cc3ccccc3s2)cc(OC)c1OC` [PNR-5-02], for which the “protection against formation of protein aggregates” value in experiment [3] was “protective”; in experiment [1] (C. elegans AM141, Q40::YFP aggregates), “protective”; in experiment [6], “protective”; in experiment [7], “protective”; in experiment [2] (SH-SY5Y-APPSw, β-amyloid aggregates), “protective”. This compound also showed a life span extension in experiment [4] (10 μM in 0.013% DMSO, from eggs) of 15%. Also, the “maximum life span extension” value in experiment [4] (setting [8]) came to 15%. Moreover, in experiment [4] (setting [8]), the “mean life span extension” value is given as 15%. In addition, in experiment [1] (AM141 adults imaged at 7 days of adult age, 1 d exposure to 50-nM vs 6 d exposure), the “intensity and number of Q40::YFP aggregates” value is listed as “as effective in reducing AM141 aggregates as 6-days exposure; also recorded: reduces Q40 aggregated in just 1 day”. Moreover, the “protein aggregates in cerebral cortex (in words)” value in experiment [5] (FIG. 5, P<0.03 by 1-tailed heteroscedastic t test) is given as “reduces protein aggregates”. In experiment [5] (setting [9]), the “reduction in sarcosyl-insoluble aggregates normalized to total protein” value is 18%. For the same compound, the “reduction of larger aggregates (top of each gel lane)” value in experiment [5] (setting [9]) was greater than 40%.
Regarding `COc1cc(/C(C#N)=C/c2coc3ccccc23)cc(OC)c1OC` [PNR-5-18], the “reduction of aggregate count” value in experiment [1] is roughly 20%.
As to `COc1cc(OC)cc(/C(C#N)=C/c2nc3ccccc3s2)c1` [PNR-5-58], the “reduction of aggregate count” value in experiment [1] is roughly 20%. Further, in experiment [2], the “reduction of Thioflavin-fluorescence intensity” value is 54%.
